Results reported in US7368432B2 (Xenome, Ltd., priority 1999, dated 2008).

Tests used:
neurotensin receptors = conditions: in vivo; cited from earlier work
CF-1 mice = conditions: mouse, in vivo

For Contulakin-G, the “potency in inhibiting pain relative to neurotensin” value (neurotensin receptors) is listed as “significantly more potent than neurotensin”.

For NGVCCGYKLCHOC [Mar1], the “motor impairment (rotarod)” value (CF-1 mice) was “do not produce gross motor impairment or impair performance on the rotarod test”.
